In ChEMBL document CHEMBL1148615, “3-Amino-1,4,5,6-tetrahydropyrrolo[3,4-c]pyrazoles: a new class of CDK2 inhibitors” (Bioorg Med Chem Lett, 2006):
Converted amounts (≈) assume the structure as drawn. The source made the active and inactive calls. The calls are words filed in the database; no cut-off is given here.

Experiments:
[1] = target: Cyclin-dependent kinase 2/cyclin A (Homo sapiens, UniProt P24941); assay: Inhibitory activity against CDK2/Cyclin A; type: protein-complex assay
Aurora kinase A = target: T1, Aurora kinase A (Homo sapiens, UniProt O14965); assay: Inhibitory activity against Aurora A kinase
T1 sequence (O14965 whole entry): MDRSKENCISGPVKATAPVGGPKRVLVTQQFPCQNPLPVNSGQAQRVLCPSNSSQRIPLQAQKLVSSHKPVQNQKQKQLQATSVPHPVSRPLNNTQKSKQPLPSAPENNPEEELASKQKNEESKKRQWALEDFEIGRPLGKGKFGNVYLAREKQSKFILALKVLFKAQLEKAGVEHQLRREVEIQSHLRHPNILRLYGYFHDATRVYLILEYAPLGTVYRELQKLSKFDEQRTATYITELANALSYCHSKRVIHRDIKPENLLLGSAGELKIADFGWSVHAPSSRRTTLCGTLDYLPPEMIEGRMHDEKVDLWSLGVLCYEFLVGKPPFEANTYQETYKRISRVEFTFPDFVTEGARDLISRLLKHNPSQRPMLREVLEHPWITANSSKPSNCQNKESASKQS

A2780 = assay: Antiproliferative activity against A2780 cells; type: functional, cell-based; conditions: Homo sapiens
[2] = target: Cyclin-dependent kinase 2/cyclin E (Homo sapiens, UniProt P24941); assay: Inhibitory activity against CDK2/Cyclin E; type: protein-complex assay
[3] = target: Cyclin-dependent kinase 1/cyclin B (Homo sapiens, UniProt P06493); assay: Inhibitory activity against CDK1/Cyclin B; type: protein-complex assay
[4] = target: Cyclin-dependent kinase 4/cyclin D1 (Homo sapiens, UniProt P11802); assay: Inhibitory activity against CDK4/Cyclin D1; type: protein-complex assay
Cyclin-dependent kinase 4/cyclin D1, sequence (P11802 whole entry): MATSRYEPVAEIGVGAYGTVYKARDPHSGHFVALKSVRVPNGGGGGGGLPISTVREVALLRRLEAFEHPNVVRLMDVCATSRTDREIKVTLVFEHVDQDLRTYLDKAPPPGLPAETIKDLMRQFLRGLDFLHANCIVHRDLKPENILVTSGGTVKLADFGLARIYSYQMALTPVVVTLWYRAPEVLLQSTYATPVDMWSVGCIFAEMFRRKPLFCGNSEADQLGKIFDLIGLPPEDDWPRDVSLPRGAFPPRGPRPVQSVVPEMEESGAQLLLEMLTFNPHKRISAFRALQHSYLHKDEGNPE
Cyclin-dependent kinase 4/cyclin D1, sequence (P24385 whole entry, further chain): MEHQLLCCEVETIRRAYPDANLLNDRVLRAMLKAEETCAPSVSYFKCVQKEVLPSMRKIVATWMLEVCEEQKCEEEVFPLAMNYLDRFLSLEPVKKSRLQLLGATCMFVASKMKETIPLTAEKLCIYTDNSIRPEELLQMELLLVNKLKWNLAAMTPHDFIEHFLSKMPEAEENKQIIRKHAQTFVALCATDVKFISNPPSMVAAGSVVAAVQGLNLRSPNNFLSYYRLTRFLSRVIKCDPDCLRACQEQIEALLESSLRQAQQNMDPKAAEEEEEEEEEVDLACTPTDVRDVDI

[5] = target: Cyclin-dependent kinase 5/CDK5 activator 1 (Homo sapiens, UniProt Q00535); assay: Inhibitory activity against CDK5/p25; type: protein-complex assay
Cyclin-dependent kinase 5/CDK5 activator 1, sequence (Q00535 whole entry): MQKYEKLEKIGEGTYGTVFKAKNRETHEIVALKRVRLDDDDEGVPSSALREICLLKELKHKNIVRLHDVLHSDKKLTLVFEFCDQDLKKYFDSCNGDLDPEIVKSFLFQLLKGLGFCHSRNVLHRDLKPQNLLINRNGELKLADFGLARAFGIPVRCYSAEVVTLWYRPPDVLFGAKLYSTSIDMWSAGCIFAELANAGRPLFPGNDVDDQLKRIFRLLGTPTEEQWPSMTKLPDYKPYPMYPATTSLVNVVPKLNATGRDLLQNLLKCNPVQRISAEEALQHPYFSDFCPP
Cyclin-dependent kinase 5/CDK5 activator 1, sequence (Q15078 whole entry, further chain): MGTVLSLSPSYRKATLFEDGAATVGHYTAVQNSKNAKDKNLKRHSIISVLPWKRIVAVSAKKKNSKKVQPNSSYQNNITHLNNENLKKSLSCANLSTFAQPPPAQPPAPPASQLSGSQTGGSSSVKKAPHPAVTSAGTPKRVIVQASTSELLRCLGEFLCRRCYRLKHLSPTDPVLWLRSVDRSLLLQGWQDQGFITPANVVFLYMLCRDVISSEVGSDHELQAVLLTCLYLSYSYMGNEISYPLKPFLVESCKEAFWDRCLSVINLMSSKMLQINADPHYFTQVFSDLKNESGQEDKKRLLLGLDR

[6] = target: Glycogen synthase kinase-3 beta (Homo sapiens, UniProt P49841); assay: Inhibitory activity against GSK3-beta
Glycogen synthase kinase-3 beta, sequence (P49841 whole entry): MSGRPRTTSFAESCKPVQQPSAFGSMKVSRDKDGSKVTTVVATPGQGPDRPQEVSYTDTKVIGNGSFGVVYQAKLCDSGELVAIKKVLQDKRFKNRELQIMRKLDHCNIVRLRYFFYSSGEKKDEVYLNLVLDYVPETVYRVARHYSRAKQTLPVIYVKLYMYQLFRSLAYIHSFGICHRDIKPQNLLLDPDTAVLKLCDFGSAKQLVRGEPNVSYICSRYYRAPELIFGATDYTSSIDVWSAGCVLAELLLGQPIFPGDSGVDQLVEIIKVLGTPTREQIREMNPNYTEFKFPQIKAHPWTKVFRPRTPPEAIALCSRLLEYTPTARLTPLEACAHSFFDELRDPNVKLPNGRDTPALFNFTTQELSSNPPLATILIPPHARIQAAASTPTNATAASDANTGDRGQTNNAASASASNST

[7] = target: Mitogen-activated protein kinase 1 (Homo sapiens, UniProt P28482); assay: Inhibitory activity against p42MAPK
Mitogen-activated protein kinase 1, sequence (P28482 whole entry): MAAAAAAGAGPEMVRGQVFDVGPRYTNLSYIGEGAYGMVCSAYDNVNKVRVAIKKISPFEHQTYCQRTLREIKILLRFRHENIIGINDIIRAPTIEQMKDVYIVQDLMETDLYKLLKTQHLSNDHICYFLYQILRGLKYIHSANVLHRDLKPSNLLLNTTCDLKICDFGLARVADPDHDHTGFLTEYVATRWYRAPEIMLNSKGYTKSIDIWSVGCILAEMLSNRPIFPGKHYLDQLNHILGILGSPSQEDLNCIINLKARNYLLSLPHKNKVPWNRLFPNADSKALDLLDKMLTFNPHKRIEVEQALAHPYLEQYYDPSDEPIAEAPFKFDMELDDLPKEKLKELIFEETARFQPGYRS

HCT-116 = assay: Antiproliferative activity against HCT116 cells; type: functional, cell-based; conditions: Homo sapiens
HT-29 [8] = assay: Antiproliferative activity against HT29 cells; type: functional, cell-based; conditions: Homo sapiens
[9] = Solubility in buffer; type: physicochemical
Cytochrome P450 3A4 = Cytochrome P450 3A4 (Homo sapiens, UniProt P08684); assay: Metabolic stability in presence of CYP3A4; type: ADME
Cytochrome P450 3A4, sequence (P08684 whole entry): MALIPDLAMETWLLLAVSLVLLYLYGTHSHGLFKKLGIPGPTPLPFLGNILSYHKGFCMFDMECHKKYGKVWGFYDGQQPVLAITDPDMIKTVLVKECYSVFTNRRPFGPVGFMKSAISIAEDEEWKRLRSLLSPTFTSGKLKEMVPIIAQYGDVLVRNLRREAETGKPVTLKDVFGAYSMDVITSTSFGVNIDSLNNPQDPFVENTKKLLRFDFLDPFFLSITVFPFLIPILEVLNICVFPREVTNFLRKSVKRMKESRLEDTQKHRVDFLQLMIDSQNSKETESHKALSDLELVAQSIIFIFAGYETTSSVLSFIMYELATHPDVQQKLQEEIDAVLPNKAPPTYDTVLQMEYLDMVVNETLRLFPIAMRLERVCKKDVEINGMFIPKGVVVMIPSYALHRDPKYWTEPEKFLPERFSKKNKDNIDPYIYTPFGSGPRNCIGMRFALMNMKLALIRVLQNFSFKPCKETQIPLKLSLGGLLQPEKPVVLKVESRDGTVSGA

[10] = Plasma protein binding; type: ADME, cell-free; conditions: human, read-out: PPB (converted)
HT-29 [11] = assay: Cell cycle arrest in HT29 cells by accumulation at G1/S phase; type: functional, cell-based; conditions: Homo sapiens
HT-29 [12] = assay: Incorporation of BrdU in HT29 cells; type: functional, cell-based; conditions: Homo sapiens
[13] = target: T2, Cyclin-dependent kinase 2/cyclin A (Homo sapiens) (UniProt P24941+P20248+P78396); assay: Inhibition of hyperphosphorylation of pRb by CDK2/cyclin A at 3 uM; type: functional
[14] = target: T2, Cyclin-dependent kinase 2/cyclin A (Homo sapiens); assay: Inhibition of hyperphosphorylation of pRb by CDK2/cyclin A at 1 uM; type: functional

CC(=O)N1Cc2n[nH]c(NC(=O)c3cccc(F)c3)c2C1
IC50 [1]: 2.11 µM | IC50 (Aurora kinase A): 4.85 µM

CC(=O)N1Cc2n[nH]c(NC(=O)c3ccccc3)c2C1
IC50 [1]: 1.15 µM | IC50 (Aurora kinase A): 3.11 µM

CCCCNC(=O)N1Cc2n[nH]c(NC(=O)Cc3ccc(N4CCCC4=O)cc3)c2C1
IC50 [1]: 0.051 µM | IC50 (Aurora kinase A): > 10 µM | IC50 (A2780): 8.27 µM

CC(C)NC(=O)N1Cc2n[nH]c(NC(=O)c3ccc4c(c3)OCO4)c2C1
IC50 [1]: 0.12 µM | IC50 (Aurora kinase A): 0.39 µM

CC(=O)N1Cc2n[nH]c(NC(=O)c3ccc(F)cc3)c2C1
IC50 [1]: 2.54 µM | IC50 (Aurora kinase A): > 10 µM

CCCCNC(=O)N1Cc2n[nH]c(NC(=O)[C@@H](C)c3ccc4ccccc4c3)c2C1
IC50 [2]: 0.09 µM | IC50 [3]: 0.75 µM | IC50 [4]: > 10 µM | IC50 [5]: 0.15 µM | IC50 [6]: 0.05 µM | IC50 [7]: 0.38 µM | IC50 (HCT-116): 0.12 µM | IC50 (HT-29 [8]): 0.07 µM | solubility [9]: 27 µM (≈ 10.9 µg/mL) | Stability (Cytochrome P450 3A4): 20% | fraction unbound [10]: 0.01 | Activity (HT-29 [11]): Active | Activity (HT-29 [12]): inactive | Activity [13]: Active | IC50 [1]: 0.036 µM | IC50 (Aurora kinase A): > 10 µM | IC50 (A2780): 0.13 µM

NC(=O)N1Cc2n[nH]c(NC(=O)Cc3ccccc3)c2C1
IC50 [1]: 0.03 µM | IC50 (Aurora kinase A): > 10 µM

COc1ccc(C(=O)Nc2[nH]nc3c2CN(C(C)=O)C3)cc1
IC50 [1]: 1.37 µM | IC50 (Aurora kinase A): 0.66 µM

CCCCNC(=O)N1Cc2n[nH]c(NC(=O)Cc3ccc4ccccc4c3)c2C1
IC50 [1]: 0.045 µM | IC50 (Aurora kinase A): > 10 µM | IC50 (A2780): 0.54 µM

O=C(Cc1ccccc1)Nc1[nH]nc2c1CN(C(=O)Nc1ccccc1)C2
IC50 [1]: 0.73 µM | IC50 (Aurora kinase A): > 10 µM

CCCCNC(=O)N1Cc2n[nH]c(NC(=O)Cc3ccc(N4CCCC4)cc3)c2C1
IC50 [2]: 0.091 µM | IC50 [3]: 0.4 µM | IC50 [4]: > 10 µM | IC50 [6]: 0.3 µM | IC50 [7]: 0.28 µM | IC50 (HCT-116): 0.9 µM | IC50 (HT-29 [8]): 0.2 µM | solubility [9]: 39 µM (≈ 16 µg/mL) | Stability (Cytochrome P450 3A4): 100% | fraction unbound [10]: 0.05 | Activity (HT-29 [11]): Active | Activity (HT-29 [12]): inactive | Activity [14]: Active | IC50 [1]: 0.033 µM | IC50 (Aurora kinase A): 4.2 µM | IC50 (A2780): 0.94 µM

CC(=O)N1Cc2n[nH]c(NC(=O)c3ccc(C)cc3)c2C1
IC50 [1]: 1.08 µM | IC50 (Aurora kinase A): 2.14 µM

CC(=O)N1Cc2n[nH]c(NC(=O)c3ccc(C#N)cc3)c2C1
IC50 [1]: 1.59 µM | IC50 (Aurora kinase A): 8.5 µM

Cc1ccc(C(=O)Nc2[nH]nc3c2CN(C(=O)c2cccc4cccnc24)C3)cc1
IC50 [1]: 1.05 µM | IC50 (Aurora kinase A): 0.44 µM

CC(=O)N1Cc2n[nH]c(NC(=O)c3ccc4c(c3)OCO4)c2C1
IC50 [1]: 2.76 µM | IC50 (Aurora kinase A): > 10 µM

CC(=O)N1Cc2n[nH]c(NC(=O)Cc3ccccc3)c2C1
IC50 [1]: 0.44 µM | IC50 (Aurora kinase A): 2.31 µM

CC(C)C(=O)N1Cc2n[nH]c(NC(=O)c3ccc4c(c3)OCO4)c2C1
IC50 [1]: 0.43 µM | IC50 (Aurora kinase A): 0.16 µM

CCCCNC(=O)N1Cc2n[nH]c(NC(=O)Cc3ccccc3F)c2C1
IC50 [1]: 0.051 µM | IC50 (Aurora kinase A): > 10 µM
